Data reported in patent US9561231B2 (AbbVie Inc., priority 2012, dated 2017).
pEC50, pKi: −log10 of the molar value.

Columns and labels:
[1] = target: T1, first (BD1: amino acids K57-E168) bromodomain of BRD4 (Homo sapiens, UniProt O60885); experiment: TR-FRET bromodomain binding assay, BRD4 BD1; conditions: TR-FRET assay protocol (A-G, compound concentration range); Ki calculated from IC50, probe Kd and probe concentration; read-out: TR-FRET Binding Ki: BRD4 (BDI_K57-E168)
T1 construct: His-tagged first (BD1: amino acids K57-E168)
In short: (§1)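 Values are Ki: IC50s from TR-FRET competition with an Alexa647-labeled BET-inhibitor probe were converted using probe Kd and probe concentration. Purified His-tagged bromodomain; pH 6.0 sodium phosphate buffer.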

[2] = system: breast cancer cell line MX-1; experiment: MX-1 cell line proliferation assay (3-day); type: cell-based; conditions: Homo sapiens, MX1; MX-1 cells, 72 h incubation, Cell Titer Glo; read-out: Cellular proliferation: EC50
Procedure: The impact of compounds of the Examples on cancer cell proliferation was determined using the breast cancer cell line MX-1 (ATCC) in a 3-day proliferation assay. MX-1 cells were maintained in RPMI supplemented with 10% FBS at 37° C. and an atmosphere of 5% CO2. For compound testing, MX-1 cells were plated in 96-well black bottom plates at a density of 5000 cells/well in 90 μL of culture media and incubated at 37° overnight to allow cell adhesion and spreading. Compound dilution series were prepared in DMSO via a 3-fold serial dilution from 3 mM to 0.1 μM. The DMSO dilution series were then diluted 1:100 in phosphate buffered saline, and 10 μL of the resulted solution were added to the appropriate wells of the MX-1 cell plate. The final compound concentrations in the wells were 3, 1, 0.3, 0.1, 0.03, 0.01, 0.003, 0.001, 0.0003 and 0.0001 μM.
Luminescence readings from the Cell Titer Glo assay were normalized to the DMSO treated cells and analyzed using the GraphPad Prism software with sigmoidal curve fitting to obtain EC50s.

[3] = target: T2, second (BD2: amino acids E352-E168) bromodomain of BRD4 (Homo sapiens, UniProt O60885); experiment: TR-FRET bromodomain binding assay, BRD4 BD2; conditions: TR-FRET assay protocol (A-G, compound concentration range); Ki calculated from IC50, probe Kd and probe concentration; read-out: TR-FRET Binding Ki: BRD4 (BDII_E352-M457)
T2 construct: protocol
In short: as §1

Row | pKi [1] | pEC50 [2] | pKi [3] | SMILES
1 | 6.67 | 6.19 | 7.15 | Cn1nc(-c2ccccc2Oc2ccccc2)c(-c2ccc(CNS(C)(=O)=O)cc2)cc1=O [Example 98, N-{4-[1-methyl-6-oxo-3-(2-phenoxyphenyl)-1,6-dihydropyridazin-4-yl]benzyl}methanesulfonamide]
2 | 6.85 | 6.25 | 7.23 | CC(=O)NCc1ccc(-c2cc(=O)n(C)nc2-c2ccccc2Oc2ccccc2)cc1 [Example 99, N-{4-[1-methyl-6-oxo-3-(2-phenoxyphenyl)-1,6-dihydropyridazin-4-yl]benzyl}acetamide]
3 | 6.84 | < 5.52 | 7.14 | CC(=O)NCCc1ccc(-c2cc(=O)n(C)nc2-c2ccccc2Oc2ccccc2)cc1 [Example 100, N-(2-{4-[1-methyl-6-oxo-3-(2-phenoxyphenyl)-1,6-dihydropyridazin-4-yl]phenyl}ethyl)acetamide]
4 | 6.63 | 5.95 | 6.83 | Cn1nc(-c2ccccc2Oc2ccccc2)c(-c2ccc(CCCO)cc2)cc1=O [Example 101, 5-[4-(3-hydroxypropyl)phenyl]-2-methyl-6-(2-phenoxyphenyl)pyridazin-3(2H)-one]
5 | 6.60 | < 5.52 | 6.96 | Cn1cc(-c2cc(=O)n(C)nc2-c2ccccc2Oc2ccccc2)cn1 [Example 103, 2-methyl-5-(1-methyl-1H-pyrazol-4-yl)-6-(2-phenoxyphenyl)pyridazin-3(2H)-one]
6 | 6.29 | < 5.52 | 7.07 | CC(=O)Nc1ccc(-c2cc(=O)n(C)nc2-c2ccccc2Oc2ccccc2)cc1 [Example 105, N-{4-[1-methyl-6-oxo-3-(2-phenoxyphenyl)-1,6-dihydropyridazin-4-yl]phenyl}acetamide]
7 | 6.86 | 5.89 | 6.74 | Cn1nc(-c2ccccc2Oc2ccccc2)c(-c2ccc(S(N)(=O)=O)cc2)cc1=O [Example 112, 4-[1-methyl-6-oxo-3-(2-phenoxyphenyl)-1,6-dihydropyridazin-4-yl]benzenesulfonamide]
8 | 6.87 | 6.21 | 7.20 | Cn1nc(-c2ccccc2Oc2ccccc2)c(-c2ccc(NS(C)(=O)=O)cc2)cc1=O [Example 119, N-{4-[1-methyl-6-oxo-3-(2-phenoxyphenyl)-1,6-dihydropyridazin-4-yl]phenyl}methanesulfonamide]
9 | 6.60 | < 5.52 | 6.86 | CNC(=O)c1ccc(-c2cc(=O)n(C)nc2-c2ccccc2Oc2ccccc2)cc1 [Example 127, N-methyl-4-[1-methyl-6-oxo-3-(2-phenoxyphenyl)-1,6-dihydropyridazin-4-yl]benzamide]
10 | 6.67 | 6.42 | 6.59 | Cn1nc(-c2ccccc2Oc2ccccc2)c(-c2ccc(N3CCOCC3)cc2)cc1=O [Example 149, 2-methyl-5-[4-(morpholin-4-yl)phenyl]-6-(2-phenoxyphenyl)pyridazin-3(2H)-one]
11 | 7.58 | 6.61 | 7.60 | CN1CCN(c2ccc(-c3cc(=O)n(C)nc3-c3ccccc3Oc3ccccc3)cc2)CC1 [Example 161, 2-methyl-5-[4-(4-methylpiperazin-1-yl)phenyl]-6-(2-phenoxyphenyl)pyridazin-3(2H)-one]
12 | 7.35 | 6.43 | 7.17 | CC(C)N1CCN(c2ccc(-c3cc(=O)n(C)nc3-c3ccccc3Oc3ccccc3)cc2)CC1 [Example 180, 2-methyl-6-(2-phenoxyphenyl)-5-{4-[4-(propan-2-yl)piperazin-1-yl]phenyl}pyridazin-3(2H)-one]
13 | 6.49 | 5.84 | 6.79 | CNc1ccc(-c2cc(=O)n(C)nc2-c2ccccc2Oc2ccccc2)cc1 [Example 191, 2-methyl-5-[4-(methylamino)phenyl]-6-(2-phenoxyphenyl)pyridazin-3(2H)-one]
